Measurements taken from patent US11331379B2, “Compositions and methods for regulating pancreatic beta cell function using adipsin” (Dana-Farber Cancer Institute, Inc., priority 2014, dated 2022).

Legend:
[1] = biological target: T1, C3aR1 (Mus musculus, UniProt O09047); test: C3aR1 antagonist treatment of adipsin-adenovirus-transduced db/db mice, i.p. GTT and plasma insulin; format: in vivo
T1 construct: endogenous in cells; host or cells: db/db mice (Jackson Laboratories, Stock 000697), whole animal
T1 sequence (O09047 1-477): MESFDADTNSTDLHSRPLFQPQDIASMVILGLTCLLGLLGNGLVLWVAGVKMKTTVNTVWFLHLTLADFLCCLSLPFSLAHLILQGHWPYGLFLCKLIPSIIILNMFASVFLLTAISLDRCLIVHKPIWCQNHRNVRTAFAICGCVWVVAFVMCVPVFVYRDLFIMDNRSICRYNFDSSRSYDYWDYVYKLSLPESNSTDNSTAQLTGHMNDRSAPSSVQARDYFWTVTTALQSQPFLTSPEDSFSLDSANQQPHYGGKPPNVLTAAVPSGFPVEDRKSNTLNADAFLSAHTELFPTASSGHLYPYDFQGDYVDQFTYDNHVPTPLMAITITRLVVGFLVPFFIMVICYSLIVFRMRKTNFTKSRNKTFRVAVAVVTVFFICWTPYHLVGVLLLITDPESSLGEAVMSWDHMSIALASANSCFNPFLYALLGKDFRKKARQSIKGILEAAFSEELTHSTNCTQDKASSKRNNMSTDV
Source text: Wild-type (WT) and Adipsin^−/− mice (from G. Stahl, Brigham and Women's Hospital, Boston, Mass., USA) were backcrossed 7-10 generations to C57BL/6 (B6) background. Control littermate mice from same backcrossed generations were used for experiments. B6 mice were fed a regular chow diet or a 60% kCal high fat diet (Research Diets, New Brunswick, N.J., USA) for the indicated times. db/db mice (Stock 000697) were purchased from Jackson laboratories (Bar Harbor, Me., USA). For adenoviral expression studies, mice were injected intravenously with lacZ or adipsin-expressing pAd adenoviral vectors (Life Technologies, Grand Island, N.Y., USA) and assayed 5 days later. For C3aR1 antagonist experiments, SB 290157 (N^2-[(2,2-Diphenylethoxy)acetyl]-L-arginine, TFA, Millipore, Billerica, Mass., USA) dosed at 30 mg/kg or vehicle (10% ethanol) was administered by intraperitoneally (i.p.) injections bis in die (b.i.d.) from days 3-5 after adenovirus. Mice were fasted overnight for glucose tolerance tests and given an i.p. injection of D-glucose ([…] for regular diet mice). For insulin tolerance tests, mice were fasted for 5 hours and given an i.p. injection of insulin (0.75 units/kg body weight). Blood samples were taken from the tail vein and measured with a glucometer. The mice were housed in a facility accredited by the American Association for Laboratory Animal Care. The Institutional Animal Care and Use Committee of the Beth Israel Deaconess Medical Center approved studies using animals.

[2] = system: murine islets; test: static glucose-stimulated insulin secretion (GSIS) assay in isolated islets; format: cell-based, mouse; conditions: for enhancement of insulin secretion: islets from WT mice on chow diet
Procedure: (§1) Recombinant C3a and C5a proteins (R&D Systems, Minneapolis, Minn., USA) were used at a concentration of 100 nM. Anti-adipsin antibody for Western blot analysis was from Santa Cruz Biotechnology, Santa Cruz, Calif., USA). Antibodies to C3aR1 (Santa Cruz Biotechnology), C5aR1 (Biolegend, San Diego, Calif., USA) and C5L2 (Hycult Biotechnology, Plymouth Meeting, Pa., USA) were used for flow cytometry. RNA isolation and reverse transcription were performed with TRIzol® (Life Technologies), RNeasy (Qiagen, Valencia, Calif., USA) and cDNA synthesis (Agilent Technologies, Santa Clara, Calif., USA) kits. qPCR reactions were done with SYBR green on an ABI PRISM® 7900HT real time PCR system (Life Technologies).
Islets were isolated from pancreata of the indicated genotype with collagenase digestion as previously described (Danial et al. (2008) Nat. Med. 14:144-153). For static incubation (batch release) assays, islets were handpicked and placed into basal Krebs buffer containing 3 mM glucose followed by transfer into Krebs solution containing the indicated concentrations of glucose or secretagogues. After 45 min incubation at 37° C., the islets were pelleted and the supernatant was collected for insulin measurement. The pellet was solubilized to assess intracellular insulin content. Insulin was measured by ELISA using mouse insulin as a standard (Crystal Chem Inc., Downers Grove, Ill., USA).

[3] = system: islets; test: oxygen consumption rate (OCR) of islets, XF24 analyzer; format: cell-based, mouse
Procedure: as §1
Real-time measurements of mitochondrial oxygen consumption rate (OCR) were performed using the XF24 extracellular flux analyzer instrument and the AKOS algorithm built in the XF24 v1.7.0.74 software (Seahorse Bioscience, Inc., Billerica, Mass., USA). Islets were rinsed with sodium bicarbonate-free DMEM supplemented with 0.5% BSA and 3 mM glucose and 60 islets were distributed per well and recounted for OCR measurements. After baseline measurements, substrates or inhibitors of interests were added in single 50 μl injections delivered through individual injection ports. […] The respiratory rate of each islet sample was measured at 37° C. and analyzed using the Seahorse XF24 v1.5.0.69 software.

[4] = biological target: T1, C3aR1; test: GSIS assay in islets from wild-type and C3aR1-deficient mice with or without C3a; format: cell-based; conditions: WT versus C3aR1-deficient islets
Source text: Panels A and B show the relative expression of Adipsin (Panel A) and C3 (Panel B) in liver, quadriceps muscle (quad), islets, epididymal (epi) and inguinal (ing) fat. Samples were quantitated by qPCR. Panels C-E show the results of flow cytometry performed on islet cells with antibodies to the complement/anaphylatoxin receptors C3aR1 (Panel C), C5aR1 (Panel D), and C5L2 (Panel E). Panels F-G show the results of isolated islets from WT mice on a chow diet (Panel F) or HFD (Panel G) subjected to a GSIS assay in the presence or absence of recombinant C3a and C5a with the indicated concentrations of glucose. Panels H and I show the results of db/db mice transduced with lacZ or adipsin adenovirus ([…]) treated with vehicle or C3aR antagonist (SB 290157) at a dose of 30 mg/kg b.i.d. for 3 days and subjected to an i.p. GTT with measurements of blood glucose concentrations (Panel H) and plasma insulin levels (Panel I) at the indicated times. Statistics for GTT assays between groups: lacZ/vehicle vs. adipsin/vehicle, p=0.05; adipsin/vehicle vs. adipsin/SB 290157, p<0.01; lacZ/SB 290157 vs. adipsin/vehicle, p<0.01. […]
Islets were isolated from pancreata of the indicated genotype with collagenase digestion as previously described (Danial et al. (2008) Nat. Med. 14:144-153). […] Insulin was measured by ELISA using mouse insulin as a standard (Crystal Chem Inc., Downers Grove, Ill., USA).

[5] = system: islets; test: cytoplasmic free Ca2+ measurement in perifused islets (Fura-2); format: cell-based, mouse
Procedure: as §1
For measurements of cytoplasmic free Ca^2+ concentration, islets were loaded with 2 μM Fura-2/AM (Molecular Probes, Eugene, Oreg., USA) for 60 min. in the presence or absence of C3a in a buffer containing (in mM) 125 NaCl, 5.9 KCl, 1.28 CaCl2, 1.2 MgCl2, 25 HEPES, and 3 glucose and 0.1% BSA (pH 7.4). After loading, a single islet was transferred to an open perifusion chamber maintained at 37° C. and [Ca^2+], was measured as the 340/380 nm fluorescence ratio using a Spex FluoroLog® spectrophotometer coupled to a Zeiss Axiovert 35 M microscope with a Zeiss Fluar 40×/1.30 oil objective (Carl Zeiss, Gottingen, Germany). Concentrations of 20 mM glucose and 50 mM KCl (in the presence of 3 mM glucose) were used for islet stimulation.

In the case of N=C(N)NCCC[C@H](NC(=O)COCC(c1ccccc1)c1ccccc1)C(=O)O.O=C(O)C(F)(F)F [SB 290157, N^2-[(2,2-Diphenylethoxy)acetyl]-L-arginine, TFA], the “improvements in insulin secretion conferred by the adipsin adenovirus” value ([1]; db/db mice with adipsin adenovirus, antagonist 30 mg/kg i.p. b.i.d. for 3 days) is reported as “nearly completely reversed”, the “improvements in glucose tolerance conferred by the adipsin adenovirus” value ([1]; db/db mice with adipsin adenovirus, antagonist 30 mg/kg i.p. b.i.d. for 3 days, i.p. GTT) is reported as “nearly completely reversed” and the “insulin induction from time 0 to 20 minutes” value ([1]; db/db mice, adipsin adenovirus plus SB 290157 30 mg/kg b.i.d. 3 days, i.p. glucose challenge) is reported as 1.4 fold.

With “C3a: Recombinant C3a protein (R&D Systems); complement peptide, direct product of C3 convertase generated by adipsin” the “insulin secretion in conjunction with tolbutamide” value ([2]; 0.25 mM tolbutamide, C3a 100 nM) was “further stimulated insulin secretion”, the “insulin secretion in conjunction with KCl” value ([2]; 30 mM KCl, C3a 100 nM) was “further stimulated insulin secretion” and the “enhancement of insulin secretion” value ([2]; high glucose, 100 nM, acute) was 30-40%. For the same molecule, the “insulin secretion in diabetic islets” value ([2]; islets from diabetic mice fed a HFD, 100 nM) was “stimulated insulin secretion”, the “enhancement of insulin secretion” value ([2]; low glucose, 100 nM) was “not low” and the “oxygen consumption with glucose challenge” value ([3]; 20 mM glucose, acute C3a, versus control islets) was “increased oxygen consumption”. The ATP-coupled respiration ([3]; islets, C3a versus control) was “increases ATP-coupled respiration”, the “C3a-mediated potentiation of glucose-stimulated insulin secretion” value [4] was “C3aR1 is required” and the “basal levels of [Ca2+]i” value ([5]; 3 mM glucose, C3a-treated versus control islets) was “similar”. The “[Ca2+]i in response to glucose and KCl” value ([5]; 20 mM glucose and KCl stimulation) was “potently augmented”, the “response times of [Ca2+]i” value ([5]; C3a-treated versus non-treated islets) was “similar” and the “increase of [Ca2+]i area under the curve” value ([5]; KCl stimulation) was about 100%. The “increase of peak [Ca2+]i” value ([5]; KCl stimulation) was about 100%, the “increase of [Ca2+]i area under the curve” value ([5]; glucose stimulation (20 mM)) was about 50% and the “increase of peak [Ca2+]i” value ([5]; glucose stimulation (20 mM)) was about 50%. The “increases in [Ca2+]i” value ([5]; isolated islets perifused with glucose or KCl in the presence of C3a) was 50-100%.

B1: C5a: Recombinant C5a protein (R&D Systems), complement anaphylatoxin (protein, UniProt P01031 678-751, looked up)
C5a anaphylatoxin: TLQKKIEEIAAKYKHSVVKKCCYDGACVNNDETCEQRAARISLGPRCIKAFTECCVVASQLRANISHKDMQLGR
modifications: C5a anaphylatoxin
For B1, the “enhancement of insulin secretion” value ([2]; C5a 100 nM, GSIS) was “did not show this effect”.
